From publication PMC9387934, “Randomized single oral dose phase 1 study of safety, tolerability, and pharmacokinetics of Iminosugar UV-4 Hydrochloride (UV-4B) in healthy subjects” (PLoS Neglected Tropical Diseases, 2022)
Counter-ions that a name gives are not always drawn. Like-named read-outs stand apart in the source and are kept apart here.

Tests used:
[1] = Phase 1a single ascending dose study: safety and tolerability (treatment-emergent adverse events); type: in vivo, human; conditions: for Dose-limiting toxicity / Tolerability of single oral doses: po; for Maximum tolerated dose: single oral dose in humans, not yet determined
Procedure: UV-4 ((2R,3R,4R,5S)-2-(hydroxymethyl)-1-(9-methoxynonyl)piperidine-3,4,5-triol, also called N-(9’-methoxynonyl)-1-deoxynojirimycin, or MON-DNJ) hydrochloride was evaluated in a first-in-human, randomized, single-center, double-blind, placebo-controlled, parallel group, single ascending dose Phase 1a clinical trial in healthy subjects (Figs 1 and 2, ClinicalTrials.gov Identifier NCT02061358 https://clinicaltrials.gov/ct2/show/NCT02061358). The primary objective was to determine the safety and tolerability of a single-ascending oral dose of UV-4 hydrochloride (Fig 3). […] The secondary objective was to determine PK parameters describing absorption and elimination of UV-4 following a single oral dose of UV-4 hydrochloride. Eight cohorts of eight subjects each were enrolled and completed the study. In each cohort, six subjects received UV-4 as the hydrochloride; two received placebo. Subjects were screened against study eligibility criteria up to four weeks (Days -28 to -2) before admission to the clinic (Day -1). Dosing was performed on an inpatient basis. Subjects remained in clinic for 48 hours post-dosing for PK sample collection and safety assessments and were discharged from the clinic on Day 3. Subjects returned to the clinic on Day 4 for additional safety assessments, then again on Day 9 ± 1 for a final follow-up visit.
Safety assessments included telemetry (pre-dose and 12 hours during and post-dosing), 12-lead ECG measurements, vital signs (supine and standing) including systolic blood pressure (SBP) and diastolic blood pressure (DBP) (mmHg), pulse rate (beats/minute), respiratory rate (breaths/minute), and oral temperature, physical examinations, clinical laboratory assessments (hematology, clinical chemistry, coagulation, urinalysis, platelet function), stool evaluation including occult blood, and adverse events (AEs).
Safety oversight was provided by an independent safety monitor (ISM), Safety Review Committee (SRC), and Safety Monitoring Committee (SMC). In addition, a cardiologist reviewed all cases with AEs related to heart rate and blood pressure. Summary statistics for subject baseline characteristics and measurements, disposition, exposure, and safety were tabulated by cohort in a blinded manner for the review by the SRC and SMC. Blinded individual case information was also supplied to the SMC and cardiologist for review. SRC reviews occurred after all subjects in a given cohort completed evaluations, or after predefined criteria triggered a review (halting criteria). Provided satisfactory safety review, subjects were enrolled into the next higher dose cohort. In addition, the SMC met to review all safety and exposure data after completion of Cohort 3. All AEs were coded to System Organ Class (SOC) and Preferred Term (PT) using the Medical Dictionary for Regulatory Activities (MedDRA), Version 16.1 [34].
All AEs were graded for severity and relationship to study product, according to one of the following categories:
• Grade 1: An event that is easily tolerated by the subject, causing minimal discomfort and not interfering with everyday activities; • Grade 2: An event that is sufficiently discomforting to interfere with normal everyday activities; • Grade 3: An event that prevents normal everyday activities; • Grade 4: An event that requires an emergency room visit or hospitalization […]
9.1 Specification of Safety Parameters
Safety is a primary outcome measure.
Adverse events will be evaluated from time of dose administration through the follow-up visit. Adverse events that have not resolved at the follow-up visit will be followed until resolution or until medically stable. […]
If a vital sign measurement is observed to be abnormal, it may be repeated up to a total of 2 times at 5 to 10 minutes intervals. If a normal value is obtained, no further repeat measurements are required. If the value is still abnormal after 2 repeats, the least abnormal value will be utilized for grading the AE. The AE will […]

[2] = Reproductive toxicity upper limit study in rats, 12 days; type: in vivo, rat; conditions: 50 mg/kg/day
Procedure: 7. Reproductive toxicity:
UV-4B has been evaluated for developmental and reproductive toxicity in fertility and early embryonic development in rats, embryo-fetal development in rats and rabbits, and pre- and postnatal development in rats. In male and female rats given UV-4B at 8, 20, and 50 mg/kg/day before mating and continuing through Gestation Day 13, a […]
observed at 50 mg/kg/day. […]
count but following a 21-week treatment-free period there was complete recovery in pregnancy and fertility indices However, decrease in testicular weight, sperm motility […]
identify the upper limit of reproductive toxicity, a dose of 50 mg/kg/day for 12 […]
In a study designed to identify the upper limit of reproductive toxicity, a dose of 50 […]
rabbit offspring. The rat and rabbit doses are equivalent to 486 and 966 mg/day, […]
In summary, findings that have been identified in the UV-4B toxicology studies so far include effects on the GI tract (including ulcers/erosions), lymphocytes and lymphoid tissue, reduction in PLT count, and increases in transaminases (AST>ALT). Findings were generally consistent across mouse, dog, and rat, apart from the isolated finding of swollen paws/legs and perioral appearance and red skin which was seen only in the rat. […]

DENV = conditions: cited from earlier work
[3] = parameters: method as in Investigator’s Brochure (IB); conditions: dogs, ref Investigator’s Brochure (IB), cited from earlier work; for Finding at the highest dose: 150 mg/kg/dose TID for seven days
[4] = parameters: method as in Investigator’s Brochure (IB); conditions: 50 mg/kg/day for 12 days; ref Investigator’s Brochure (IB); cited from earlier work
[5] = 20 mg/kg TID, started 1 hour before infection, ref UV4-LIA-0004
[6] = 20 mg/kg TID, started 24 hours after infection, ref UV4-LIA-0003b
[7] = 20 mg/kg TID, started 24 hours after infection, ref UV4-LIA-0004
[8] = 20 mg/kg TID, started 48 hours after infection, ref UV4-LIA-0003b
[9] = 20 mg/kg TID, started 48 hours after infection, ref UV4-LIA-0004

## COCCCCCCCCCN1C[C@H](O)[C@@H](O)[C@H](O)[C@H]1CO [UV-4B, N-(9’-methoxynonyl)-1-deoxynojirimycin hydrochloride]
[1]; both, human, in vivo
  Related TEAE, Balance disorder: number (%) of subjects: 1/48
  Related TEAE, Dizziness postural: number (%) of subjects: 1/48
  Related TEAE, Dizziness: number (%) of subjects: 1/48
  Related TEAE, Headache: number (%) of subjects: 2/48
[1]; in vivo
  Dose-limiting toxicity: not observed
[1]
  Maximum tolerated dose: > 1000 mg
[2]
  Human equivalent of the rat dose: 486 mg/day
DENV; 2.5 mg/kg TID, ref UV4-LIA-0002
  Survival rate: 40%
DENV; 5 mg/kg TID, ref UV4-LIA-0002
  Survival rate: 50%
DENV; 20 mg/kg TID, started 1 hour before infection, all surviving at end of study, ref UV4-LIA-0003b
  Mean time to death (MTTD): more than 11 days
DENV; 20 mg/kg TID, started 1 hour before infection, ref UV4-LIA-0003b
  Survival rate: 100%
DENV; [5]
  Mean time to death (MTTD): 9.1 days
  Survival rate at 11 days post-infection: 30%
DENV; [6]
  Mean time to death (MTTD): 7 days
  Survival rate: 80%
DENV; [7]
  Mean time to death (MTTD): 10.5 days
  Survival rate at 11 days post-infection: 60%
DENV; [8]
  Mean time to death (MTTD): 9.3 days
  Survival rate: 70%
DENV; [9]
  Mean time to death (MTTD): 6 days
  Survival rate at 11 days post-infection: 40%
DENV; doses 2.5 to 40 mg/kg TID, first dose 1 hour prior to infection, ref UV4-LIA-0002
  Minimal effective dose (survival of 90% to 100%): 10 mg/kg TID
[3]
  Finding at the highest dose: severe GI effects
  Finding at 10 mg/kg/dose TID: diarrhea was still apparent
[4]
  Finding in rat offspring: increase in skeletal malformations

## COCCCCCCCCCN1C[C@H](O)[C@@H](O)[C@H](O)[C@H]1CO [UV-4, N-(9’-methoxynonyl)-1-deoxynojirimycin]
[1]; both, human, in vivo
  Grade 2 Related TEAE: number (%) of subjects: 1 (2.1%)
  Grade 3 Related TEAE: number (%) of subjects: 0
  Grade 3 TEAE: number (%) of subjects: 1 (2.1%)
  Incidence of Bristol Stool Scale Type 7: no incidence of Bristol Stool Scale Type 7
  Related TEAE, Abdominal Pain: number (%) of subjects: 1 (2.1%)
  Related TEAE, Balance disorder: number (%) of subjects: 1 (2.1%)
  Related TEAE, Blood Calcium Decreased: number (%) of subjects: 1 (2.1%)
  Related TEAE, Blood Pressure Decreased: number (%) of subjects: 0
  Related TEAE, Cardiac disorders (System Organ Class): number (%) of subjects: 1 (2.1%)
  Related TEAE, Dizziness postural: number (%) of subjects: 1 (2.1%)
  Related TEAE, Dizziness: number (%) of subjects: 1 (2.1%)
  Related TEAE, Ear and labyrinth disorders (System Organ Class): number (%) of subjects: 1 (2.1%)
  Related TEAE, Gastrointestinal disorders (System Organ Class): number (%) of subjects: 3 (6.3%)
  Related TEAE, General disorders and administration site conditions (System Organ Class): number (%) of subjects: 1 (2.1%)
  Related TEAE, Headache: number (%) of subjects: 2 (4.2%)
  Related TEAE, Investigations (System Organ Class): number (%) of subjects: 2 (4.2%)
  Related TEAE, Lipase increased: number (%) of subjects: 1 (2.1%)
  Related TEAE, Local Swelling: number (%) of subjects: 1 (2.1%)
  Related TEAE, Nervous system disorder (System Organ Class): number (%) of subjects: 4 (8.3%)
  Related TEAE, Neutrophil count decreased: number (%) of subjects: 0
  Related TEAE, Presyncope: number (%) of subjects: 0
  Related TEAE, Proteinuria: number (%) of subjects: 1 (2.1%)
  Related TEAE, Renal and urinary disorders (System Organ Class): number (%) of subjects: 1 (2.1%)
  Related TEAE, Supraventricular tachycardia: number (%) of subjects: 0
  Related TEAE, Ventricular tachycardia: number (%) of subjects: 1 (2.1%)
  Related TEAE, Vertigo: number (%) of subjects: 1 (2.1%)
  Related TEAE, White blood cell count decreased: number (%) of subjects: 0
  Subjects with ≥1 TEAE: number (%) of subjects: 43 (89.6%)
  Tolerability of single oral doses: safe at all doses tested up to 1000 mg
[1]; human, in vivo
  Grade 1 Related TEAE: number (%) of subjects: 10 (20.8%)
  TEAE Haematuria: number (%) of subjects: 4 (8.3)
  TEAE Headache: number (%) of subjects: 3 (6.3)
  TEAE Prothrombin time prolonged: number (%) of subjects: 4 (8.3)
[1]; in vivo
  Dose-dependent increases in adverse events: not observed
  Fecal occult blood findings: None of the subjects had positive fecal occult blood findings
  Subjects reporting abdominal pain: two
  Subjects who vomited: one
  Dose-limiting toxicity: No dose limiting toxicity was observed
  Tolerability of single oral doses: well tolerated
[1]
  Maximum tolerated dose: > 1000 mg
[3]
  Finding at the highest dose: severe GI effects
  Finding at 10 mg/kg/dose TID: diarrhea was still apparent although not adverse
